Measurements from patent US8362204B2 (priority 2006, dated 2013).
“And” between values parts separate entries of the source, which are not always exact repeats. Identical values can stand only once. Positions of bridges follow the written chain, without caps; N, C: chain ends. Non-standard residues stand in square brackets, D forms with d. Residues, ends and D or L forms follow the SMILES beside them. ξ: configuration not given here. Ala(indol-2-yl) = N[C@@H](Cc1cc2ccccc2[nH]1)C(=O)O; AllylGly = C=CC[C@H](N)C(=O)O; ξP = O=C(O)C1CCCN1

Columns and labels:
[1] = target: T1, neuronal-type nicotinic receptors (Bos taurus, UniProt Q07263+Q8SPU6); assay type: cell-based, Bovine
T1 construct: monolayer cultures of bovine adrenal chromaffin cells; endogenous in cells; host or cells: bovine adrenal chromaffin cells (primary monolayer cultures)

[2] = target: T1, neuronal-type nicotinic receptors; settings: cited from earlier work

T1 sequence (Q07263 22-495): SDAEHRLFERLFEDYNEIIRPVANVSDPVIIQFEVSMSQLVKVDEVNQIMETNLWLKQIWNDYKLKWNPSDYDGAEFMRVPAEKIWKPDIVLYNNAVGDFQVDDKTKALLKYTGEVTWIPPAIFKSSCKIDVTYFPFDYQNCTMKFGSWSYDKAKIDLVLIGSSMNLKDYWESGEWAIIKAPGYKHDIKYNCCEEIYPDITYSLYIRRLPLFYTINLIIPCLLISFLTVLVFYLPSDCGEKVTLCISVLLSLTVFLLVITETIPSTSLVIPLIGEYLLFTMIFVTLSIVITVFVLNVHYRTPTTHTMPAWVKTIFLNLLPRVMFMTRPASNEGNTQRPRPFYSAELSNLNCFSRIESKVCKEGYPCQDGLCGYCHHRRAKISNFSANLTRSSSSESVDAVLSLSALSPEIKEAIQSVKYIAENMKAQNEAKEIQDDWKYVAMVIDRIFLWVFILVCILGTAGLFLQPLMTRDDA
T1 sequence (Q8SPU6 20-496): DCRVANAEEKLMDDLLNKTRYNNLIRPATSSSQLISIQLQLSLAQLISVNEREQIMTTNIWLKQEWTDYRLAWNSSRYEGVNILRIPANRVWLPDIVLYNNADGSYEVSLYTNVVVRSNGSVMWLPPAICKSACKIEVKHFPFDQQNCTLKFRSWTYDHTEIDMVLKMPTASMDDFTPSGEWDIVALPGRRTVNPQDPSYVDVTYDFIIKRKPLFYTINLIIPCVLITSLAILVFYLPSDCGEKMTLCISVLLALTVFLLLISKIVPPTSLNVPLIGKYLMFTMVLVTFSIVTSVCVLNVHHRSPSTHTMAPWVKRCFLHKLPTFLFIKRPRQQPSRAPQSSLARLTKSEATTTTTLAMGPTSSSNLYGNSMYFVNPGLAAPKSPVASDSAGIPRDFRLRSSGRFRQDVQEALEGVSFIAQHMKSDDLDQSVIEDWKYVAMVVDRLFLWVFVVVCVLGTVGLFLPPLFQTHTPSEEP

SMILES	Adrenaline Release, 1st-4th (individual wells) [1]	Adrenaline Release, % control [1]	Adrenaline Release, mean [1]	Noradrenaline Release, 1st-4th (individual wells) [1]	Noradrenaline Release, % control [1]	Noradrenaline Release, mean [1]	effect on nicotine-stimulated release of adrenaline and noradrenaline [2]	Noradrenaline Release, % inhibition [1]	noradrenaline released, basal release (0.72%) subtracted [1]
C[C@@H]1NC(=O)[C@@H]2CCCC[C@H](NC(=O)CN)C(=O)N[C@@H](CSSC[C@@H](C(N)=O)NC(=O)[C@H](CCCNC(=N)N)NC(=O)[C@H](Cc3cc4ccccc4[nH]3)NC1=O)C(=O)N[C@@H](CO)C(=O)N[C@@H](CC(=O)O)C(=O)N1CCCC1C(=O)N[C@@H](CCCNC(=N)N)C(=O)N2 (stereo partly drawn) [compound 118, [2,8]-Dicarba-[3,12]-Cystino Conotoxin ImI: NH2-Gly-c[Hag-Cys-Ser-Asp-Pro-Arg-Hag]-Ala-Trp-Arg-Cys)-NH2]	2.94% and 4.40% and 4.46% and 4.09% and 2.55% and 3.63% and 2.62% and 3.31%	88.260% and 65.306%	3.97% and 3.03%	4.52% and 6.29% and 7.00% and 7.34% and 4.19% and 5.86% and 4.32% and 5.51%	90.859% and 69.384%	6.29% and 4.97%			
C[C@@H]1NC(=O)[C@@H]2CSSC[C@H](NC(=O)CN)C(=O)N[C@@H](CSSC[C@@H](C(N)=O)NC(=O)[C@H](CCCNC(=N)N)NC(=O)[C@H](Cc3cc4ccccc4[nH]3)NC1=O)C(=O)N[C@@H](CO)C(=O)N[C@@H](CC(=O)O)C(=O)N1CCCC1C(=O)N[C@@H](CCCNC(=N)N)C(=O)N2 (stereo partly drawn) [native-Ctx ImI] (H-GCCSD[ξP]RCA[Ala(indol-2-yl)]RC-NH2; disulfide 2-8, 3-12)							inhibit		
C[C@@H]1NC(=O)[C@@H]2CSSC[C@H](NC(=O)CN)C(=O)N[C@@H](CC=CC[C@@H](C(N)=O)NC(=O)[C@H](CCCNC(=N)N)NC(=O)[C@H](Cc3cc4ccccc4[nH]3)NC1=O)C(=O)N[C@@H](CO)C(=O)N[C@@H](CC(=O)O)C(=O)N1CCCC1C(=O)N[C@@H](CCCNC(=N)N)C(=O)N2 (stereo partly drawn) [compound 119, [2,8]-Cystino-[3,12]-Dicarba Conotoxin ImI: NH2-Gly-Cys-c [Hag-Ser-Asp-Pro-Arg-Cys-Ala-Trp-Arg-Hag]-NH2] (H-GC[AllylGly]SD[ξP]RCA[Ala(indol-2-yl)]R[AllylGly]-NH2; disulfide 2-8; staple 3-12)	3.31% and 3.67% and 4.14% and 3.98% and 2.32% and 2.95% and 2.76% and 3.02%	83.420% and 58.888%	3.77% and 2.76%	4.89% and 5.75% and 5.73% (2×) and 3.22% and 4.58% and 3.99% and 4.81%	78.400% and 55.971%	5.52% and 4.15%		21.600%	3.43%
